Patent US20100221763A1, “Specific Acceptors for Transferases to Saccharides and Method for Obtaining and Using Same” (Health Research, Inc, priority 2005, published 2010)

Key:
LNCaP α2,3(O)ST = assay: Sialyltransferase assay with LNCaP cell extract; assay type: biochemical, human
Description: The prostate carcinoma cell line, LNCaP, was grown in RPMI 1640 supplemented with 10% fetal bovine serum and antibiotics (penicillin, streptomycin and amphotericin B) under conditions recommended by American Type Culture Collection (Manassas, Va.). The cells were homogenized with 0.1M Tris-Maleate pH6.3 containing 2% Triton X-100 using a Dounce all glass hand-operated homogenizer. The homogenate was centrifuged at 16,000 g for 1 h at 4° C. Protein concentration in supernatant was measured using the BCA assay (Pierce Biotech, Inc., Rockford, Ill.), with BSA as the standard. The supernatant was adjusted to 5 mg protein/ml by adding the necessary amount of extraction buffer and then stored frozen at −20° C. until use. 10 μl aliquot of this extract was used in assays run in duplicate.
(§1) The incubation mixtures run in duplicate contained 0.1M NaCacodylate buffer pH6.0, the acceptor (typically at 7.5 mM, or as indicated in some experiments), CMP-[9 ^3H] NeuAc (typically 0.2 μci; 20 μci/nmol or as indicated in some experiments) and the enzyme in a total volume of 20 μl. The control incubation mixtures contained everything except the acceptor. Incubation was carried out for 2 h at 37° C. The enzymatic transfer of [9-^3H] NeuAc to a typical acceptor was linear for 2 h and less than 30% CMP-[9-^3H] NeuAc was utilized. Chromatography, using either Dowex-1-Formate, Sep-Pak C18 or Biogel P2, was applied to separate radioactive product from un-reacted [9-^3H] NeuAc as described below.
(§2) The radioactive products from neutral allyl and methyl glycosides as well as non-glycosides were measured by fractionation on Dowex-1-Formate (Bio-Rad: AG-1X8; 200-400 mesh; format form) as follows: The incubation mixture was diluted with 1.0 ml water and passed through AG-1-formate column (1.0 ml bed volume in a Pasteur pipet which had been washed with 5 ml of 2M Formic acid followed by 10 ml water). The column was washed twice with 1.0 ml water after the entry of the sample and then eluted with 3.0 ml of 0.1M NaCl. The radioactivity present in water and 0.1M NaCl eluates were measured separately using 3a70 scintillation cocktail (Research Products International, Mount Prospect, Ill.) and a Beckman LS6500 scintillation counter. The CPM values were corrected by subtracting the blank CPM. Any radioactivity present in the water eluate (as noticed in the case of some methylglycosides) was added to the corresponding CPM value of 0.1M NaCl eluate. The radioactive products from sulfated and/or sialylated methylglycosides were also measured by the above procedure, only the elution of the AG-1-Formate column was continued further with 3.0 ml of 0.2M NaCl for achieving a complete elution of the radioactive product, a correction being made as before by subtracting the corresponding blank values.
(§3) The radioactive products from benzylglycosides and monosialylated benzylglycosides were measured by hydrophobic chromatography on Sep-Pak C18 cartridge (Waters, Milford, Mass.) and eluting the product with 3.0 ml methanol (30). The radioactivity was determined by liquid scintillation as above.
(§4) For such work, a Biogel P2 column (Fine Mesh; 1.0×116.0 cm) was used with 0.1M pyridine acetate pH5.4 as the eluent at room temperature. The effluent fractions were monitored for radioactivity and the first peak containing radioactivity was collected, lyophilized to dryness, dissolved in 200 μl of water and stored frozen at −20° C. for thin layer chromatography (TLC) and other experimentation.

[1] = target: T1, Rat recombinant α2,3(O)ST (Rattus norvegicus, UniProt Q11205); assay: Sialyltransferase assay with cloned α2,3(O)ST; assay type: biochemical; conditions: for Km / Vmax: CMP-NeuAc 150 μM, Lineweaver-Burke plot
T1 construct: purchased Calbiochem
T1 sequence (Q11205 1-350): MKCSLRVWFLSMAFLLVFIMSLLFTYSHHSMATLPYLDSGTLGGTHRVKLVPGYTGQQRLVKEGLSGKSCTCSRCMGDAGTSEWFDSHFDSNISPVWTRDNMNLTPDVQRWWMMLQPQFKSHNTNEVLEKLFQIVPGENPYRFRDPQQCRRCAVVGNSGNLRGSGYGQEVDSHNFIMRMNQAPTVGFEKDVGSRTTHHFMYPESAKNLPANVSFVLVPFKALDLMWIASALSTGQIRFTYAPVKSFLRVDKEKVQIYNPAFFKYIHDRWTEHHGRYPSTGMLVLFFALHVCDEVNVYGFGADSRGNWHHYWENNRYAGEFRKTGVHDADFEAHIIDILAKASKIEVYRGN
Description: Rat recombinant α2,3(O)ST, α2,3(N)ST and α2,6(N)ST were purchased from Calbiochem and stored at either −20° C. or −70° C. as recommended by the supplier. […] 10 μl aliquots of the diluted enzymes were used in the assays run in duplicate.
as §1, §2, §3, §4

[2] = Table II, acceptor 0.75 mM, relative to Galβ1,3GalNAcα-O-Bn
[3] = Table IV, compound 7.5 mM, relative to Galβ1,3(GlcNAcβ1,6)GalNAcα-O—Al
[4] = Table II, acceptor 7.5 mM, relative to Galβ1,3GalNAcα-O-Bn
[5] = Table I, acceptor 7.5 mM, 100% = 30930 CPM (3-O-MeGalβ1,4GlcNAcβ1,6(Galβ1,3)GalNAcα-O-Bn)
[6] = Table I, acceptor 7.5 mM, 100% = 40560 CPM (3-O-MeGalβ1,4GlcNAcβ1,6(Galβ1,3)GalNAcα-O-Bn)

Compound | Sialyltransferase activity (%) LNCaP α2,3(O)ST (LNCaP α2,3(O)ST; [2]) [%] | Sialyltransferase activity (%) Cloned α2,3(O)ST [1, 2] | Km [1] [µM] | Vmax [1] [pmol/h] | also measured
COC[C@H]1O[C@H](OCc2ccccc2)[C@H](NC(C)=O)[C@@H](O[C@@H]2O[C@H](CO)[C@H](O)[C@H](OC)[C@H]2O)[C@H]1O [3-O-MeGalβ1,3(6-O-Me)GalNAcα-O-Bn] | 1.1 | 55.9% | – | – | –
CO[C@H]1[C@@H](O)[C@@H](CO)O[C@@H](O[C@H]2[C@@H](O)[C@@H](CO[C@@H]3O[C@H](CO)[C@@H](O)[C@H](O)[C@H]3NC(C)=O)O[C@H](OCc3ccccc3)[C@@H]2NC(C)=O)[C@@H]1O [3-O-MeGalβ1,3(GlcNAcβ1,6)GalNAcα-O-Bn, 3-O-MeGalβ1,3(GlcNAcβ1,6) GalNAcα-O-Bn] | – | – | – | – | Sialyltransferase activity (%) Cloned α2,3(O)ST [1, 3]: 24.7%
CO[C@H]1[C@@H](O)[C@@H](CO)O[C@@H](O[C@H]2[C@@H](O)[C@@H](CO)O[C@H](OCc3ccccc3)[C@@H]2NC(C)=O)[C@@H]1O [3-O-MeGalβ1,3GalNAcα-O-Bn] | 2.6 | 70.4% | – | – | Sialyltransferase activity (%) LNCaP α2,3(O)ST (LNCaP α2,3(O)ST; [4]): 15.5%; Sialyltransferase activity (%) Cloned α2,3(O)ST [1, 4]: 101.8%
CO[C@H]1O[C@H](CO)[C@H](O)[C@H](O[C@@H]2O[C@H](CO)[C@H](O)[C@H](O[C@@H]3O[C@H](C)[C@H](O)[C@H](OS(=O)(=O)O)[C@H]3O)[C@H]2NC(C)=O)[C@H]1O [3-O-SulfoD-Fucβ1,3GalNAcβ1,3Galα-O-Me] | – | – | 2000 | 624 | –
CC(=O)NC1C(OCC2OC(OCc3ccccc3)C(NC(C)=O)C(OC3OC(CO)C(O)C(OS(=O)(=O)O)C3O)C2O)OC(CO)C(O)C1O (stereo not shown) [3-O-SulfoGalβ1,3(GlcNAcβ1,6)GalNAcα-O-Bn, 3-O-SulfoGalβ1,3(GlcNAcβ1,6) GalNAcα-O-Bn] | – | – | – | – | Sialyltransferase activity (%) Cloned α2,3(O)ST [1, 3]: 54.7%
COC1OC(CO)C(O)C(OC2OC(CO)C(O)C(OC3OC(CO)C(O)C(OS(=O)(=O)O)C3O)C2NC(C)=O)C1O (stereo not shown) [3-O-SulfoGalβ1,3GalNAcβ1,3Galα-O-Me] | – | – | 1250 | 416 | –
CC(=O)N[C@H]1[C@@H](OCc2ccccc2)O[C@H](CO)[C@H](O)[C@@H]1O[C@@H]1O[C@H](CO)[C@H](F)[C@H](O)[C@H]1O [4-F-Galβ1,3GalNAcα-O-Bn] | 44.8 | 104.6^10% | 250 | 1442 | Sialyltransferase activity (%) LNCaP α2,3(O)ST (LNCaP α2,3(O)ST; [4]): 105.1%; Sialyltransferase activity (%) Cloned α2,3(O)ST [1, 4]: 102.3^10%
CO[C@@H]1[C@H](O)[C@@H](O)[C@H](O[C@H]2[C@@H](O)[C@@H](CO)O[C@H](OCc3ccccc3)[C@@H]2NC(C)=O)O[C@@H]1CO [4-O-MeGalβ1,3GalNAcα-O-Bn] | 141.5 | 104.6^9% | 130 | 1250 | Sialyltransferase activity (%) LNCaP α2,3(O)ST (LNCaP α2,3(O)ST; [4]): 188.7%; Sialyltransferase activity (%) Cloned α2,3(O)ST [1, 4]: 105.0^9%
CC(=O)N[C@H]1[C@H](OC[C@H]2O[C@H](OCc3ccccc3)[C@H](NC(C)=O)[C@@H](O[C@@H]3O[C@H](CO)[C@H](O)[C@H](O)[C@H]3O[C@@H]3O[C@@H](C)[C@@H](O)[C@@H](O)[C@@H]3O)[C@H]2O)O[C@H](CO)[C@@H](O)[C@@H]1O [Fucα1,2Galβ1,3(GlcNAcβ1,6)GalNAcα-O-Bn] | – | – | 1820 | 197 | Sialyltransferase activity (%) Cloned α2,3(O)ST [1, 3]: 45.4%
CO[C@H]1O[C@H](CO[C@@H]2O[C@H](CO)[C@@H](O[C@@H]3O[C@H](CO)[C@H](O)[C@H](O)[C@H]3NC(C)=O)[C@H](O[C@@H]3O[C@@H](C)[C@@H](O)[C@@H](O)[C@@H]3O)[C@H]2NC(C)=O)[C@H](O)[C@H](O[C@@H]2O[C@H](CO)[C@H](O)[C@H](O)[C@H]2O)[C@H]1NC(C)=O [GalNAcβ1,4(Fucα1,3)GlcNAcβ1,6(Galβ1,3)GalNAcα-O-Me] | – | – | – | – | Sialyltransferase activity (%) LNCaP α2,3(O)ST (LNCaP α2,3(O)ST; [5]): 21.1%; Sialyltransferase activity (%) Cloned α2,3(O)ST [1, 6]: 134.9%
COC[C@H]1O[C@H](OCc2ccccc2)[C@H](NC(C)=O)[C@@H](O[C@@H]2O[C@H](CO)[C@H](O)[C@H](O)[C@H]2O)[C@H]1O [Galβ1,3(6-O-Me)GalNAcα-O-Bn] | 119.2 | 107.6^11% | – | – | Sialyltransferase activity (%) LNCaP α2,3(O)ST (LNCaP α2,3(O)ST; [4]): 189.4%; Sialyltransferase activity (%) Cloned α2,3(O)ST [1, 4]: 107.3^11%
CC(=O)NC1C(OC2C(O)C(CO)OC(OC3C(CO)OC(OCc4ccccc4)C(NC(C)=O)C3O)C2O)OC(CO)C(OC2OC(CO)C(O)C(O)C2O)C1O (stereo not shown) [Galβ1,4GlcNAcβ1,3Galβ1,4GlcNAcβ-O-Bn] | – | – | – | – | Sialyltransferase activity (%) Cloned α2,3(O)ST [1, 6]: 8.7%
COC1OC(COC2OC(COS(=O)(=O)O)C(OC3OC(CO)C(O)C(OC4(C(=O)O)CC(O)C(NC(C)=O)C(C(O)C(O)CO)O4)C3O)C(OC3OC(C)C(O)C(O)C3O)C2NC(C)=O)C(O)C(OC2OC(CO)C(O)C(O)C2O)C1NC(C)=O (stereo not shown) [NeuAcα2,3Galβ1,4(6-O-Sulfo)(Fucα1,3)GlcNAcβ1,6(Galβ1,3)GalNAcα-O-Me] | – | – | – | – | Sialyltransferase activity (%) Cloned α2,3(O)ST [1, 6]: 7.4%
COC1OC(COC2OC(CO)C(OC3OC(CO)C(O)C(OC4(C(=O)O)CC(O)C(NC(C)=O)C(C(O)C(O)CO)O4)C3O)C(O)C2NC(C)=O)C(O)C(OC2OC(CO)C(O)C(O)C2O)C1NC(C)=O (stereo not shown) [NeuAcα2,3Galβ1,4GlcNAcβ1,6(Galβ1,3)GalNAcα-O-Me] | – | – | – | – | Sialyltransferase activity (%) LNCaP α2,3(O)ST (LNCaP α2,3(O)ST; [5]): 5.1%; Sialyltransferase activity (%) Cloned α2,3(O)ST [1, 6]: 35.2%
